Measured values: patent EP1039908B1, “MOLECULAR DISPERSION COMPOSITION WITH ENHANCED BIOAVAILABILITY” (SCHERING CORPORATION, priority 1997, dated 1999)

Assay: Bioavailability assay: oral single dose to monkeys, plasma analysed by HPLC-UV, AUC ratio versus amorphous suspension control
Type: in vivo, male cynomolgus monkeys
Conditions: for bioavailability: qualitative statement, solid dosage form development with conventional excipients
Method: The formulation to be tested was administered orally to male cynomolgus monkeys in a single dose (PO, single). The number of monkeys for each test is indicated by the letter "N" followed by an equal sign and a number. Thus, "(N=6)" means the formulation was administered to six monkeys. The total amount of the compound of Formula I administered was 100 or 200 mg given as one capsule or tablet containing 100 or 200 mg each. The administered dose (tablet, capsule or control suspension) was slowly washed down with 10 mL of water. Blood samples were taken at 15, 30 minutes, 1 hour, 2 hours, 4 hours. 6 hours, 8 hours, 12 hours, 24 hours, and 48 hours in heparinized syringes. Plasma for analysis was obtained by centrifugation at 4°C. Plasma samples (one per time point) were split and stored at -20°C until assayed as described below.
The monkeys to be tested were fed two biscuits in the morning on the day of drug administration.
Monkeys that were fasted were not given any food overnight before drug administration and were fed normally after the 4-hour time point after drug administration.
Samples of monkey plasma were collected at selected time intervals. The plasma was analyzed by a high pressure liquid chromatograph (HPLC) procedure with ultraviolet detection. AUC (area under the plasma concentration-time curve, […]) values were calculated using standard procedures to determine the relative bioavailability of the compound in the tested formulations. The larger the AUC value, the greater the bioavailability.
A suspension of the compound of Formula I was used as a control. The control was made by suspending sufficient compound of Formula I in methyl cellulose solution to provide a dose of 30 mg/kg of body weight of monkey. The 0.4 % methyl cellulose solution was made by adding 4 grams of methyl cellulose to one liter of distilled water and heating at about 80°C with stirring for about 1 1/2 hours.
The results of the bioavailability assay are given in terms of percent-relative bioavailability (AUC ratio) compared to amorphous suspension of Compound I in 0.4 methyl cellulose solution.

[1] = suspension, PO single dose, fed monkeys
[2] = suspension, PO single dose, feeding state not printed in the sentence (fasted monkeys implied by b156)

Structure (SMILES) | bioavailability (listed as compound of Formula I) | bioavailability | relative bioavailability, % of the AUC of suspensions containing the amorphous form of compound I [1] | relative bioavailability, % of the C max of suspensions containing the amorphous form of compound I [1] | relative bioavailability, % of the AUC of the suspensions containing the amorphous form of compound I [2] | relative bioavailability, % of the Cmax of the suspensions containing the amorphous form of compound I [2]
NC(=O)N1CCC(CC(=O)N2CCC(C3c4ncc(Br)cc4CCc4cc(Cl)cc(Br)c43)CC2)CC1 (single isomer, unassigned; (+)) [Compound I, (+)-4-[4-(8-chloro-3,10-dibromo-6,11-dihydro-5H-benzo [5,6cyclohepta[1,2-b]pyridin-11-yl)-1-piperidinyl]-2-oxoethyl]-1-piperidinecarboxamide] | extremely poor | – | – | – | – | –
NC(=O)N1CCC(CC(=O)N2CCC(C3c4ncc(Br)cc4CCc4cc(Cl)cc(Br)c43)CC2)CC1 (single isomer, unassigned; (+)) [crystalline compound I, (+)-4-[4-(8-chloro-3,10-dibromo-6,11-dihydro-5H-benzo [5,6cyclohepta[1,2-b]pyridin-11-yl)-1-piperidinyl]-2-oxoethyl]-1-piperidinecarboxamide] | – | very poor | 3.6% | 5.2% | 1.3% | 2.7%
